Measurements taken from the CheMixHub viscosity set.
± gives the uncertainty stated by the source.

Experiment: xn = mol fraction of the nth substance listed

`CCCCn1cc[n+](C)c1.F[B-](F)(F)F` + CC(C)O showed a viscosity (293.15 K, 101.33 kPa, x1 = 0.8458) of 68.89 ± 10 mPa·s, a viscosity (293.15 K, 101.33 kPa, x1 = 0.9327) of 95.48 ± 14 mPa·s and a viscosity (298.15 K, 101.33 kPa, x1 = 0.1585) of 7.02 ± 1.1 mPa·s. For the same compound, the viscosity (298.15 K, 101.33 kPa, x1 = 0.9327) was 82.35 ± 12 mPa·s, the viscosity (303.15 K, 101.33 kPa, x1 = 0.2402) was 9.55 ± 1.4 mPa·s and the viscosity (303.15 K, 101.33 kPa, x1 = 0.9327) was 70.16 ± 11 mPa·s. The viscosity (308.15 K, 101.33 kPa, x1 = 0.2402) was 8.45 ± 1.3 mPa·s, the viscosity (313.15 K, 101.33 kPa, x1 = 0.2402) was 6.79 ± 1 mPa·s and the viscosity (313.15 K, 101.33 kPa, x1 = 0.3505) was 9.91 ± 1.5 mPa·s. For the same compound, the viscosity (318.15 K, 101.33 kPa, x1 = 0.3505) was 7.14 ± 1.1 mPa·s, the viscosity (318.15 K, 101.33 kPa, x1 = 0.4422) was 9.33 ± 1.4 mPa·s and the viscosity (323.15 K, 101.33 kPa, x1 = 0.5619) was 8.26 ± 1.2 mPa·s.

Work on `NCCCO` + CC(C)O yielded a viscosity (293.15 K, 101 kPa, x1 = 0.7002) of 19.25 ± 0.83 mPa·s.

Work on `O=S1(=O)CCCC1` + CC(C)O yielded a viscosity (303.15 K, 101 kPa, x1 = 0.0756) of 1.634 ± 0.019 mPa·s, a viscosity (303.15 K, 101 kPa, x1 = 0.1606) of 1.705 ± 0.019 mPa·s and a viscosity (303.15 K, 101 kPa, x1 = 0.2446) of 1.823 ± 0.02 mPa·s. The viscosity (303.15 K, 101 kPa, x1 = 0.3418) was 2.067 ± 0.023 mPa·s, the viscosity (303.15 K, 101 kPa, x1 = 0.4362) was 2.386 ± 0.027 mPa·s and the viscosity (303.15 K, 101 kPa, x1 = 0.5514) was 2.94 ± 0.035 mPa·s. The viscosity (303.15 K, 101 kPa, x1 = 0.6552) was 3.662 ± 0.045 mPa·s, the viscosity (303.15 K, 101 kPa, x1 = 0.754) was 4.701 ± 0.06 mPa·s and the viscosity (303.15 K, 101 kPa, x1 = 0.8754) was 6.713 ± 0.091 mPa·s. The viscosity (308.15 K, 101 kPa, x1 = 0.0756) was 1.438 ± 0.015 mPa·s, the viscosity (308.15 K, 101 kPa, x1 = 0.1606) was 1.489 ± 0.016 mPa·s and the viscosity (308.15 K, 101 kPa, x1 = 0.2446) was 1.616 ± 0.018 mPa·s. It also gave a viscosity (308.15 K, 101 kPa, x1 = 0.3418) of 1.837 ± 0.02 mPa·s, a viscosity (308.15 K, 101 kPa, x1 = 0.4362) of 2.128 ± 0.024 mPa·s and a viscosity (308.15 K, 101 kPa, x1 = 0.5514) of 2.626 ± 0.03 mPa·s. It also gave a viscosity (308.15 K, 101 kPa, x1 = 0.6552) of 3.274 ± 0.039 mPa·s, a viscosity (308.15 K, 101 kPa, x1 = 0.754) of 4.19 ± 0.051 mPa·s and a viscosity (308.15 K, 101 kPa, x1 = 0.8754) of 5.992 ± 0.074 mPa·s. It also gave a viscosity (313.15 K, 101 kPa, x1 = 0.1606) of 1.324 ± 0.014 mPa·s, a viscosity (313.15 K, 101 kPa, x1 = 0.2446) of 1.442 ± 0.015 mPa·s and a viscosity (313.15 K, 101 kPa, x1 = 0.3418) of 1.644 ± 0.018 mPa·s. For the same compound, the viscosity (313.15 K, 101 kPa, x1 = 0.4362) was 1.908 ± 0.021 mPa·s, the viscosity (313.15 K, 101 kPa, x1 = 0.5514) was 2.356 ± 0.027 mPa·s and the viscosity (313.15 K, 101 kPa, x1 = 0.6552) was 2.945 ± 0.034 mPa·s. For the same compound, the viscosity (313.15 K, 101 kPa, x1 = 0.754) was 3.754 ± 0.044 mPa·s and the viscosity (313.15 K, 101 kPa, x1 = 0.8754) was 5.332 ± 0.063 mPa·s.

In the case of `CCCCCCCCCCCCCCCCCC(=O)O` + CC(C)[C@@H]1CC[C@@H](C)C[C@H]1O, the viscosity (313.15 K, 100 kPa, x1 = 0.1) is reported as 16.61 ± 0.15 mPa·s, the viscosity (318.15 K, 100 kPa, x1 = 0.1) is reported as 12.62 ± 0.12 mPa·s and the viscosity (323.15 K, 100 kPa, x1 = 0.1) is reported as 9.81 ± 0.09 mPa·s.

Work on `ClC(Cl)(Cl)c1ccccc1` + CC(Cl)(Cl)Cl yielded a viscosity (298.15 K, 101.33 kPa, x2 = 0.157) of 1.93 ± 0.018 mPa·s, a viscosity (298.15 K, 101.33 kPa, x2 = 0.295) of 1.72 ± 0.016 mPa·s and a viscosity (298.15 K, 101.33 kPa, x2 = 0.423) of 1.532 ± 0.014 mPa·s. The viscosity (298.15 K, 101.33 kPa, x2 = 0.54) was 1.367 ± 0.013 mPa·s, the viscosity (298.15 K, 101.33 kPa, x2 = 0.647) was 1.222 ± 0.012 mPa·s and the viscosity (298.15 K, 101.33 kPa, x2 = 0.746) was 1.096 ± 0.011 mPa·s. The viscosity (298.15 K, 101.33 kPa, x2 = 0.837) was 0.9829 ± 0.0096 mPa·s and the viscosity (298.15 K, 101.33 kPa, x2 = 0.921) was 0.8849 ± 0.0088 mPa·s.

`OC1COCOC1` + CC(O)CO showed a viscosity (298.15 K, 101 kPa, x1 = 0.1001) of 40.55 ± 0.92 mPa·s, a viscosity (298.15 K, 101 kPa, x1 = 0.2022) of 35.63 ± 0.81 mPa·s and a viscosity (298.15 K, 101 kPa, x1 = 0.2993) of 31.87 ± 0.73 mPa·s. The viscosity (298.15 K, 101 kPa, x1 = 0.3988) was 28.95 ± 0.66 mPa·s, the viscosity (298.15 K, 101 kPa, x1 = 0.5) was 26.18 ± 0.6 mPa·s and the viscosity (298.15 K, 101 kPa, x1 = 0.5991) was 23.35 ± 0.53 mPa·s. The viscosity (298.15 K, 101 kPa, x1 = 0.7069) was 20.25 ± 0.46 mPa·s, the viscosity (298.15 K, 101 kPa, x1 = 0.8004) was 17.68 ± 0.4 mPa·s and the viscosity (298.15 K, 101 kPa, x1 = 0.9002) was 15.39 ± 0.34 mPa·s. It also gave a viscosity (308.15 K, 101 kPa, x1 = 0.1001) of 23.27 ± 0.56 mPa·s, a viscosity (308.15 K, 101 kPa, x1 = 0.2022) of 20.32 ± 0.49 mPa·s and a viscosity (308.15 K, 101 kPa, x1 = 0.2993) of 18.06 ± 0.44 mPa·s. For the same compound, the viscosity (308.15 K, 101 kPa, x1 = 0.3988) was 16.28 ± 0.39 mPa·s, the viscosity (308.15 K, 101 kPa, x1 = 0.5) was 14.83 ± 0.36 mPa·s and the viscosity (308.15 K, 101 kPa, x1 = 0.5991) was 13.52 ± 0.32 mPa·s. It also gave a viscosity (308.15 K, 101 kPa, x1 = 0.7069) of 12.12 ± 0.28 mPa·s, a viscosity (308.15 K, 101 kPa, x1 = 0.8004) of 10.93 ± 0.25 mPa·s and a viscosity (308.15 K, 101 kPa, x1 = 0.9002) of 9.829 ± 0.23 mPa·s. For the same compound, the viscosity (318.15 K, 101 kPa, x1 = 0.1001) was 14.08 ± 0.35 mPa·s, the viscosity (318.15 K, 101 kPa, x1 = 0.2022) was 12.09 ± 0.3 mPa·s and the viscosity (318.15 K, 101 kPa, x1 = 0.2993) was 10.67 ± 0.27 mPa·s. The viscosity (318.15 K, 101 kPa, x1 = 0.3988) was 9.707 ± 0.24 mPa·s, the viscosity (318.15 K, 101 kPa, x1 = 0.5) was 9.031 ± 0.22 mPa·s and the viscosity (318.15 K, 101 kPa, x1 = 0.5991) was 8.445 ± 0.21 mPa·s. The viscosity (318.15 K, 101 kPa, x1 = 0.7069) was 7.772 ± 0.19 mPa·s, the viscosity (318.15 K, 101 kPa, x1 = 0.8004) was 7.179 ± 0.17 mPa·s and the viscosity (318.15 K, 101 kPa, x1 = 0.9002) was 6.681 ± 0.15 mPa·s.
